Experimental data published in publication PMC7203245, “Lacosamide intake during pregnancy increases the incidence of foetal malformations and symptoms associated with schizophrenia in the offspring of mice” (Scientific Reports, 2020).

Tests used:
adult male mice [1] = experiment: Startle response/prepulse inhibition (PPI) test; format: in vivo
Method: (§1) All trials were performed by an experimenter blind to the drug treatment.
Startle response/prepulse inhibition (PPI) test. Animals were placed individually inside a startle chamber (Cibertec S.A., Madrid, Spain) and the startle response was measured using a piezoelectric accelerometer controlled by a computer. The digitized signal was averaged from 25–30 recordings. For training, the mouse was placed in the startle chamber for an acclimation period of 3 min. Baseline responses were averaged after the presentation of 20 sounds (125 dB, 100 ms long) and from this phase, the average response and peak latencies, and the peak response were determined. During PPI trials, the same 125-dB 100-ms burst was preceded (250 ms) by a prepulse stimulus of 85 dB, lasting for 50 ms. Trials including prepulse stimuli were randomly presented with normal startle stimuli, the final total being 25 of each, and the proportion of PPI was determined as [(1-prepulse/startle)*100]. The ambient background noise was 70 dB.

adult male mice [2] = experiment: Motor activity and exploration in the open field; format: in vivo; details: high-dose LCM in utero; 3–5 month old mice; 5 minutes
Method: as §1
Motor activity in the open field. To evaluate locomotor and exploratory activity, mice were placed in an open field for 5 minutes (38 x 21 x 15 cm: Cybertec S.A., Madrid, Spain). This apparatus consisted of a walled platform containing infrared (IR) emitters and sensors coupled to an actimeter, and the movement sensor was connected to a computer that recorded the number of times the mouse interrupted the IR beams/min. Exploratory activity, was determined through the time the mice interacted with two different objects in a 15 minute session.

adult male mice [3] = experiment: Sociability test; format: in vivo
Method: as §1
Sociability test. The social testing apparatus consisted of a rectangular arena (55 x 40 x 40 cm) in which a small, round wire cage (11 cm in height, with a bottom diameter of 9 cm, vertical bars 0.5 cm and horizontal bars spaced 1 cm apart) was placed in a corner, allowing nose contact between the bars but preventing fighting. The subject mouse was first placed in the arena for 5 minutes with the round wire cage empty. After that, a strange mouse was place in the round cage in […] and the subject was allowed to explore the entire social test box for 10 min. The time spent around the empty and occupied cage was measured with the aid of the camera fitted to the top of the box.

adult male mice [4] = experiment: Dark-light emergence task; format: in vivo; details: 40 mg/kg in utero; 5 minutes
Method: as §1
Dark-light emergence task. Anxiety-like behaviour was determined in mice using the dark-light emergence test. Testing was carried out in a white open field (50 x 50 cm) containing a small opaque chamber (12 x 12 cm) situated in the centre. The open field was illuminated by a lamp directed at the centre of the field (120 lux focused on the floor). Mice were moved to the testing room 1 hour prior to behavioural testing and they were introduced into the unfamiliar test environment by placing them into the small chamber and recording their behaviour over 5 minutes with a video camera. The total time spent outside the chamber was then quantified by reviewing the video recording.

pups = experiment: Neonatal behavioural tests of Fox's battery (developmental landmarks, locomotion, reflexes); format: in vivo, mice; details: P1 to P13; dams given 40 or 120 mg/kg during gestation
Method: In this part of the study, dams were treated until the day of delivery. After analysing the embryo toxicity data, the treatments were categorized as controls (saline vehicle solution alone), low dose (40 mg/kg) and high dose (120 mg/kg). […] The day of birth was designated as postnatal day (P) P0 and the litter size delivered by each dam was recorded, checking each pup for gross abnormalities. Pups were nursed by their natural dams until weaning and from PD 2, the pups were weighed and neonatal behavioural tests were carried out on 12 control mice, 12 low dose and 10 high dose mice from 7 litters. […]
The animal was placed face up, and the time taken to turn over and adopt a prone position with all four feet on the ground was assessed. […]
A mouse was placed at the edge of the table, with its forepaws and head extending over the edge. The response was scored as positive if the mouse turned around and crawled away at least 45° from the “cliff”. […]
The animal was placed face down on a 30° incline and the latency to turn 180° was recorded. […]
The total number of degrees turned by the pup during a 30 s period was recorded. […] The number of degrees was only scored in terms of completed 90° segments.
The latency of a mouse to walk a distance exceeding its body length on all four legs was measured on a flat surface covered with green paper. […]

adult male mice [5] = experiment: Y maze working memory test; format: in vivo; details: mice from dams exposed to LCM vs control
Method: as §1
Y maze. The Y maze used had three equal sized arms (8 x 40 x 20 cm), with white opaque walls at a 120° angle from each other. After introduction to the centre of the maze, the mice was allowed to freely explore the three arms during 5 minutes, recording the number of arm entries and the number of triads in order to calculate the alternation. An entry was considered to occur when all four limbs are within the arm. The success of the triplet was taken into account when mice visited the three arms in three consecutive arm entries showing normal novelty preference and working memory.

adult male mice [6] = experiment: Predator test; format: in vivo
Method: as §1
Predator test. The predator test was performed in a rectangular arena (55 x 40 x 40 cm) where a small tube was placed in a corner. The subject mouse was first placed in the area with the empty tube for 5 mins and afterwards, the tube was filled with material from a cage that housed a rat and the mice were allowed to explore the entire fear test box for 10 mins. The time spent by the mice sniffing the tube full of the rat’s material was measured with the aid of the camera fitted to the top of the box.

SMILES: COC[C@@H](NC(C)=O)C(=O)NCc1ccccc1 [LCM, R-2-acetamido-N-benzyl-3-methoxypropionamide]
- PPI of the acoustic startle response (adult male mice [1]; 40 mg/kg in utero): 54.85 ± 4.27%
- PPI of the acoustic startle response (adult male mice [1]; 120 mg/kg in utero): 23.19 ± 7.9%
- acoustic startle reflex parameters (peak latencies, maximum peak response) (adult male mice [1]; LCM administration during gestation): did not modify any parameters
- locomotor activity in open field (adult male mice [2]): enhanced locomotor activity
- social interaction with a strange mouse (sniffing time) (adult male mice [3]; 40 mg/kg in utero): 183.4 ± 11.01 s
- social interaction with a strange mouse (sniffing time) (adult male mice [3]; 120 mg/kg in utero): 172.0 ± 10.78 s
- time spent in the dark compartment (emergence test) (adult male mice [4]): 217.2 ± 11.19 s
- postnatal somatometric development and reflexological analyses (body weight, developmental landmarks, locomotor activity, balance reflexes, suspension test) (pups): dose-dependent delay
- arm alternation in Y-maze (adult male mice [5]; p = 0.04): decrease in alternation
- locomotion in Y-maze (adult male mice [5]; p = 0.087): mild increase in locomotion
- time sniffing the predator's material (adult male mice [6]; 40 mg/kg in utero): 22.85 ± 4.07%
- time sniffing the predator's material (adult male mice [6]; 120 mg/kg in utero): 22.91 ± 2.08%
